Assay results from patent US20110190392A1, “Polysaccharide Based Antimicrobial Formulations” (priority 2010, published 2011).

Assays:
Assay type in all cases: cell-based
Ad-5 = test: Antiviral log reduction (Table 2B)
[1] = test system: Klebsiella pneumoniae ATCC 10031; test: MBC of NVC-422 (Table 2A); conditions: ATCC10031
[2] = test system: Staphylococcus sciuri ATCC 49575; test: MBC of NVC-422 (Table 2A); conditions: Mammaliicoccus sciuri, ATCC49575
[3] = test system: Acinetobacter baumanii ATCC 19606; test: MBC of NVC-422 (Table 2A); conditions: Acinetobacter baumannii, ATCC19606
[4] = test system: Staphylococcus hominis ATCC 27844; test: MBC of NVC-422 (Table 2A); conditions: ATCC27844
[5] = test system: Serratia marcescens ATCC 13880; test: MBC of NVC-422 (Table 2A); conditions: ATCC13880
[6] = test system: Escherichia coli ATCC 25922; test: MBC of NVC-422 (Table 2A); conditions: ATCC25922
[7] = test system: Staphylococcus aureus ATCC 29213; test: MBC of NVC-422 (Table 2A); conditions: ATCC29213
[8] = test system: Serratia marcescens ATCC 14756; test: MBC of NVC-422 (Table 2A); conditions: ATCC14756
[9] = test system: Candida glabrata ATCC 90030; test: MBC of NVC-422 (Table 2A); conditions: Nakaseomyces glabratus, ATCC90030
[10] = test system: Candida albicans ATCC 10231; test: MBC of NVC-422 (Table 2A); conditions: ATCC10231
[11] = test system: Proteus mirabilis ATCC 29245; test: MBC of NVC-422 (Table 2A); conditions: ATCC29245
[12] = test system: Acinetobacter calcoaceticus ATCC 51432; test: MBC of NVC-422 (Table 2A); conditions: ATCC51432
[13] = test system: Staphylococcus aureus [MRSA] ATCC 33591; test: MBC of NVC-422 (Table 2A)
[14] = test system: Haemophilus influenzae ATCC 49144; test: MBC of NVC-422 (Table 2A); conditions: ATCC49144
[15] = test system: Pseudomonas aeruginosa ATCC 27853; test: MBC of NVC-422 (Table 2A); conditions: ATCC27853
[16] = test system: Enterobacter aerogenes ATCC 51697; test: MBC of NVC-422 (Table 2A); conditions: Klebsiella aerogenes, ATCC51697
HSV-1 = test: Antiviral log reduction (Table 2B)
[17] = test system: Enterococcus faecalis ATCC 29212; test: MBC of NVC-422 (Table 2A); conditions: ATCC29212
Rhinovirus-39 = test: Antiviral log reduction (Table 2B)
Influenza A = test: Antiviral log reduction (Table 2B)
[18] = test system: Staphylococcus epidermidis ATCC 12228; test: MBC of NVC-422 (Table 2A); conditions: ATCC12228
[19] = test system: Staphylococcus aureus ATCC 6358; test: MBC of NVC-422 (Table 2A); conditions: ATCC6358
[20] = test system: Enterococcus faecium [VRE] ATCC 51559; test: MBC of NVC-422 (Table 2A)

Nc1ccn(C[C@@H](CO)OCP(=O)(O)O)c(=O)n1 [Cidofovir, reference compound]
Log Reduction (Ad-5; (Ad5/A549 control)/Cidofovir, column 0.001%): 0 | Log Reduction (Ad-5; (Ad5/A549 control)/Cidofovir, column 0.01%): 0

CC(C)(CS(=O)(=O)O)N(Cl)Cl [NVC-422, N,N-dichloro-2,2-dimethyltaurine]
MBC [1]: 0.25 µg/mL | MBC [2]: 0.12 µg/mL | MBC [3]: 4 µg/mL | MBC [4]: 4 µg/mL | MBC [5]: 1 µg/mL | MBC [6]: 2 µg/mL | MBC [7]: 2 µg/mL | MBC [8]: 2 µg/mL | MBC [9]: 16 µg/mL | MBC [10]: 32 µg/mL | MBC [11]: 1 µg/mL | MBC [12]: 2 µg/mL | MBC [13]: 4 µg/mL | MBC [14]: 0.5 µg/mL | MBC [15]: 1 µg/mL | MBC [16]: 0.5 µg/mL | Log Reduction (HSV-1; HSV-1 + 10% tears, concentration of NVC-422 0.001%): 4.5 | Log Reduction (HSV-1; HSV-1 + 10% tears, concentration of NVC-422 0.01%): >4.5 | Log Reduction (HSV-1; HSV-1, concentration of NVC-422 0.001%): >4.5 | Log Reduction (HSV-1; HSV-1, concentration of NVC-422 0.01%): >4.5 | MBC [17]: 0.5 µg/mL | Log Reduction (Rhinovirus-39; concentration of NVC-422 0.01%): 1.7 | Log Reduction (Rhinovirus-39; concentration of NVC-422 0.1%): >1.5 | Log Reduction (Ad-5; Ad-5 + 10% tears, concentration of NVC-422 0.001%): 1.0 | Log Reduction (Ad-5; Ad-5 + 10% tears, concentration of NVC-422 0.01%): 1.7 | Log Reduction (Ad-5; Ad-5 + 10% tears, concentration of NVC-422 0.1%): >3.8 | Log Reduction (Ad-5; Ad-5, concentration of NVC-422 0.001%): 2.8 | Log Reduction (Ad-5; Ad-5, concentration of NVC-422 0.01%): 4.3 | Log Reduction (Ad-5; Ad-5, concentration of NVC-422 0.1%): >4.3 | Log Reduction (Influenza A; concentration of NVC-422 0.01%): 0.3 | Log Reduction (Influenza A; concentration of NVC-422 0.1%): 1.0 | Log Reduction (Influenza A; concentration of NVC-422 1.0%): >3.8 | MBC [18]: 0.25 µg/mL | MBC [19]: 2 µg/mL | MBC [20]: 0.5 µg/mL
